“And” between values parts separate entries of the source, which are not always exact repeats. Equal values may be shown once.
Legend:
Format in all cases: functional, Homo sapiens
Design in all cases: dose or concentration left out as unconfirmed
Colon cancer organoid [1] = assay: (§1) Image-based profiling of donated chemical probes and chemogenomic kinase set in O21 CRC organoid. Image analysis is performed on the sum area metric, and the data were normalized to the DMSO control. After imaging the organoid viability is measured using the OneGloEX Luciferase Assay System. The normalized viability data and sum area are reported.
Colon cancer organoid [2] = assay: as §1, with “O06” for “O21”
Colon cancer organoid [3] = assay: as §1, with “O09” for “O21”

| SMILES | Cell Viability (Colon cancer organoid [1]; Replication number 1) | Cell Viability (Colon cancer organoid [1]; Replication number 2) | Cell Viability (Colon cancer organoid [2]; Replication number 1) | Cell Viability (Colon cancer organoid [2]; Replication number 2) | Cell Viability (Colon cancer organoid [3]; Replication number 1) | Cell Viability (Colon cancer organoid [3]; Replication number 2) |
| --- | --- | --- | --- | --- | --- | --- |
| COc1cc(N2CCC(O)CC2)ccc1Nc1cc(Nc2ccccc2S(=O)(=O)C(C)C)c2cc[nH]c2n1 | 85.5887% and 104.808% | 115.828% and 93.8467% | 110.737% and 120.851% | 95.8479% and 104.062% | 95.9238% and 77.0453% | 69.9407% and 56.4198% |
| O=C(Nc1cccnn1)N1CCC(=Cc2cccc(Oc3ccc(C(F)(F)F)cn3)c2)CC1 | 101.123% and 116.429% | 106.817% and 109.694% | 84.0807% and 127.869% | 104.052% and 107.077% | 126.629% and 132.36% | 65.2365% and 71.2669% |
| COc1cc(Nc2nccc(-c3cnn4nc(OC)ccc34)n2)cc(C(F)(F)F)c1 | 43.8285% and 81.0407% | 69.763% and 98.0422% | 24.0396% and 55.0969% | 25.0029% and 51.7745% | 18.7716% and 22.0247% | 18.9351% and 21.2081% |
| C[C@@H]1CCNC(=O)c2cc3ccc(C(=O)Nc4nc5ccccc5n4CCCN(C)C)cc3n21 | 69.4409% and 79.1638% | 71.3371% and 86.362% | 118.285% and 99.4853% | 110.228% and 88.2262% | 82.052% and 59.5917% | 80.614% and 53.9902% |
| COc1cc(C)c(Sc2cnc(NC(=O)c3ccc(CNC(C)C(C)(C)C)cc3)s2)cc1C(=O)N1CCN(C(C)=O)CC1 (stereo not given) | 74.3447% and 68.0139% | 84.4374% and 89.8165% | 76.6912% and 109.056% | 80.9572% and 86.581% | 101.639% and 97.9897% | 78.5606% and 100.962% |
| COc1ccccc1S(=O)(=O)Nc1ccc2c(c1)CN(C)C(=O)N2 | 64.6421% and 66.4272% | 105.73% and 125.656% | 152.206% and 125.879% | 155.447% and 126.899% | 91.3379% and 107.573% | 93.4533% and 109.471% |
| O=C(Nc1cccnc1)c1cc(-c2ccnc(F)c2)ccc1OCc1ccccc1 | 112.865% and 104.808% | 105.956% and 96.1497% | 114.96% and 114.62% | 124.178% and 97.892% | 214.708% and 117.189% | 126.13% and 109.87% |
| CNc1nc(Nc2cnn([C@H]3CCN(C4COC4)C[C@@H]3F)c2Cl)ncc1C(F)(F)F | 107.524% and 121.533% | 104.61% and 94.4225% | 126.64% and 127.973% | 90.3478% and 106.324% | 95.686% and 93.751% | 102.903% and 81.5252% |
| COc1cc2c(cc1NS(=O)(=O)c1ccc(Br)cc1C)n(C)c(=O)n2C | 90.5613% and 147.551% | 87.5695% and 113.305% | 85.4589% and 143.275% | 107.386% and 104.912% | 82.8669% and 66.0742% | 161.71% and 111.182% |
| Clc1cccc(-c2nnnn2Cc2cccnc2)c1Cl | 103.002% and 95.4722% | 106.874% and 109.184% | 110.934% and 130.913% | 90.04% and 81.9662% | 192.597% and 128.776% | 120.929% and 99.0142% |
| CC(C)(O)CNc1ncc(-c2ccnc(Nc3ccnc(Cl)c3)n2)c(CC2CC2)n1 | 40.3035% and 73.5889% | 46.8315% and 88.665% | 43.9028% and 71.665% | 60.8585% and 108.175% | 50.3707% and 42.8861% | 72.1392% and 56.6897% |
| CCOc1cc(N2CCC(O)CC2)ccc1Nc1ncc2c(n1)N(C1CCCC1)CCC(=O)N2C | 101.764% and 118.746% | 133.409% and 125.513% | 54.2917% and 71.4425% | 45.2272% and 91.5167% | 71.8666% and 49.1195% | 54.8924% and 49.401% |
| O=C1CCc2cc(Nc3cc(OC4CCOCC4)c([N+](=O)[O-])cc3Cl)ccc2N1 | 105.584% and 104.204% | 94.4034% and 103.061% | 92.8758% and 110.539% | 96.13% and 100.681% | 197.242% and 145.978% | 128.806% and 115.663% |
| CCNC(=O)c1cc2c(N3CCOC[C@@H]3C)ccnc2n1C | 124.621% and 105.951% | 105.072% and 92.3469% | 97.9107% and 98.1265% | 90.7853% and 98.7859% | 131.24% and 98.4338% | 151.747% and 108.945% |
| O=C(Nc1ccc(-c2ccnc(Nc3ccc(N4CCOCC4)cc3)n2)cc1)[C@@H]1CCCN1 | 122.386% and 130.453% | 118.022% and 143.361% | 113.887% and 133.092% | 82.4971% and 82.4679% | 74.06% and 64.3291% | 67.524% and 79.6356% |
| CCC(=O)Nc1cccc(Oc2nc(Nc3ccc(N4CCN(C)CC4)cc3OC)ncc2Cl)c1 | 76.6045% and 88.0836% | 80.6193% and 93.271% | 127.075% and 113.507% | 91.2646% and 89.6658% | 45.1468% and 48.3715% | 57.9255% and 59.3892% |
| CCc1cc(Nc2nccc(-c3c(-c4ccc(OC)c(C(=O)Nc5c(F)cccc5F)c4)nc4ccccn34)n2)c(OC)cc1N1CCC(N2CCN(S(C)(=O)=O)CC2)CC1 | 80.3348% and 98.676% | 124.058% and 123.21% | 105.005% and 109.946% | 148.394% and 109.614% | 134.446% and 100.483% | 134.446% and 126.607% |
| Cc1c(C(=O)O)cc(-c2ccc(C3CCNCC3)cc2)c2ccc(-c3ccc(C(F)(F)F)cc3)cc12.Cl | 85.8075% and 94.398% | 96.6667% and 83.1067% | 120.986% and 114.413% | 106.141% and 127.102% | 120.061% and 98.4744% | 101.967% and 96.9469% |
| CN(C)C(=O)c1ccc(-c2cc(C(=O)N[C@@H]3CCc4ccccc43)no2)cc1O | 107.545% and 128.739% | 101.745% and 90.2148% | 75.5057% and 77.557% | 96.6364% and 86.0329% | 44.4352% and 76.507% | 55.2789% and 66.994% |
| C=CC(=O)Nc1ccc2[nH]c(=O)n(C3CCN(C(=O)c4ccc(-c5nc6cc[nH]c(=O)c6cc5-c5ccccc5)cc4)CC3)c2c1 | 115.206% and 106.481% | 111.195% and 142.785% | 120.248% and 109.056% | 107.251% and 98.7147% | 86.8441% and 100.234% | 90.0124% and 91.2435% |
| CN(C)C(=O)c1ccc(-c2cc(C(=O)N(C)C3CCCC3)no2)cc1O | 136.03% and 124.037% | 110.351% and 113.842% | 136.959% and 113.074% | 141.385% and 104.673% | 101.196% and 104.096% | 94.5921% and 98.6379% |
| C[C@@H](c1cccc(C#N)c1)n1cc(Cl)cc(C(N)=O)c1=N.Cl | 94.9994% and 100.946% | 88.3604% and 82.5969% | 94.9066% and 108.826% | 100.434% and 114.368% | 93.1286% and 91.7219% | 106.099% and 101.903% |
| CCN(Cc1ccc(Cl)cc1)c1ncc(C(=O)NCCCN2CCCC2=O)c(NC2CCCC2)n1 | 106.065% and 92.3751% | 124.526% and 113.344% | 89.2777% and 109.917% | 114.236% and 99.6728% | 161.079% and 96.7604% | 165.307% and 110.619% |
| CC(C)S(=O)(=O)c1ccc2nccc(Nc3ccc4scnc4c3)c2c1 | 106.102% and 111.498% | 112.549% and 132.422% | 90.1117% and 127.973% | 127.825% and 117.429% | 127.216% and 102.228% | 64.4509% and 80.9853% |
| O=C(Nc1cccnn1)N1CC(C/C=C/c2cncc(Oc3ccc(C(F)(F)F)cn3)n2)C1 | 91.4572% and 89.6507% | 96.356% and 80.102% | 109.538% and 100.234% | 99.7432% and 110.394% | 144.17% and 108.229% | 154.84% and 92.5885% |
| Cc1cnc(Nc2ccc(F)cc2Cl)nc1-c1c[nH]c(C(=O)N[C@H](CO)c2cccc(Cl)c2)c1 | 28.1046% and 23.9721% | 23.785% and 21.0148% | 3.326% and 7.634% | – | 6.582% and 13.6138% | – |
| CNC(=O)Nc1ccc(-c2nc(N3CC4CCC(C3)O4)c3cnn(C4CCC5(CC4)OCCO5)c3n2)cc1 | 32.2778% and 51.8467% | 33.537% and 47.4991% | 5.405% and 12.6193% | 4.979% and 10.7558% | 16.963% and 8.004% | 13.8845% and 13.3086% |

Source: ChEMBL document CHEMBL5724558, “Image-based profiling of drug vulnerabilities in CRC organoids” (2024)
